Source: BigSolDB 2.1

Cc1cc(O)c2c(c1)C(=O)c1cc(O)cc(O)c1C2=O
solubility (mole fraction)
Conditions | 273.65 K | 278.35 K | 289.35 K | 298.15 K | 307.5 K | 313.25 K | 318.05 K | 323.05 K
in ethanol | 0.000485 | 0.000626 | 0.000777 | 0.000936 | 0.00116 | 0.00148 | 0.00168 | 0.00216
in n-octanol | 0.00221 | 0.00239 | 0.00266 | 0.00272 | 0.00299 | 0.00347 | 0.00404 | 0.00463
